Where two headings read alike, the source gives them in different places. One block for each compound: values may come before it.
Experiments:
[1] = system: mice; test: Marble burial test (antianxiety); assay type: in vivo; conditions: before versus after administration (Figure 3)
Description: (§1) The drug to be tested was dissolved in DMSO: Tween 80: distilled water at a ratio of 2:2:96 (v/v/v), and then administered to mice by gavage at a volume of 10 mL/kg. […] The blank control group was only given 10 mL/kg of the above solvent.
The mouse marble burial test is a behavioral assay used for the screening of antianxiety drugs. It exploits the natural digging behavior of mice in environments such as burrows or escape tunnels and is sensitive to small changes in behavior caused by genetic manipulation, disease, or drug treatment.
A 5cm thick sawdust litter was laid in a 33 cm×24 cm×28 cm carton, and 4×5 black marbles (4 cm apart) with a total of 20 black marbles of 14mm in diameter were neatly placed on the litter. The mouse was put into the carton facing the corner for 30 minutes. After 30 minutes, the mouse was carefully taken out and the number of marbles buried by the mouse was counted. If more than 2/3 of the marble was buried, it was considered a whole marble. First, a blank experiment was conducted. Before the experiment, the mouse was taken to the experimental environment to adapt. After 1 hour, the experiment began. After the experiment, the mouse was returned to the cage and the number of marbles buried by the mouse was counted. On the second day, the mouse was taken to the experimental environment to adapt for 1 hour before the drug was administered. After the drug administration, the marble burying experiment was conducted for […]. After the experiment, the mouse was carefully taken out and returned to the cage to prevent the mouse from escaping violently and affecting the experimental results. After counting, the black marbles were taken out and wiped with alcohol, and the litter was turned over again to remove the smell of the previous mouse to prevent it from affecting the experiment of the next mouse. The marbles were neatly placed for the experiment of the next mouse.

[2] = system: mice; test: Tail suspension test (antidepression); assay type: in vivo; conditions: before versus after administration (Figure 4)
Description: as §1
The mouse tail suspension test (TST) is a widely used experimental method to evaluate the effectiveness of antidepressants and other psychotropic drugs. The principle of the test is to suspend a mouse by its tail and observe its behavior. The mouse will initially struggle to escape, but when it realizes that escape is impossible, it will eventually stop struggling and enter a state of immobility that indicates despair. This immobility behavior is used to measure depression-like states, and the severity of the condition is assessed by recording the duration of immobility.
The same mouse was subjected to the tail suspension test immediately after the marble burying test. A tail suspension test box was built using a black frosted acrylic board, 55 cm high, 15 cm long, and 11.5 cm wide. The three sides and top of the box were frosted blackboards, and one side was used for video recording. The mouse tail was wrapped with yellow tape 2 cm away from the tip of the tail, and the mouse was hung upside down in the middle of the top acrylic board. The tip of the mouse tail was about 3 cm away from the acrylic board, and the body was suspended and could not touch the surrounding board wall. The test time for each mouse lasted for 6 minutes, and the immobility time of the mouse during this time was counted. After the experiment, the mouse was returned to the cage, and the inside of the box and the table were wiped with alcohol to remove the smell of the previous mouse to prevent affecting the next mouse experiment. The criteria for immobility in the tail suspension test: stop struggling, no flexion or twisting of the body, no swinging of the hind limbs, and slight swinging of the forelimbs and head were also counted as immobility time.

[3] = target: T1, hTRPC5 (Homo sapiens, UniProt Q9UL62); test: TRPC5 inhibitory activity assay (FLIPR calcium fluorescence, Englerin A stimulation); assay type: cell-based
T1 construct: expressed in transfected cells; host or cells: HEK-293
T1 sequence (Q9UL62 1-973): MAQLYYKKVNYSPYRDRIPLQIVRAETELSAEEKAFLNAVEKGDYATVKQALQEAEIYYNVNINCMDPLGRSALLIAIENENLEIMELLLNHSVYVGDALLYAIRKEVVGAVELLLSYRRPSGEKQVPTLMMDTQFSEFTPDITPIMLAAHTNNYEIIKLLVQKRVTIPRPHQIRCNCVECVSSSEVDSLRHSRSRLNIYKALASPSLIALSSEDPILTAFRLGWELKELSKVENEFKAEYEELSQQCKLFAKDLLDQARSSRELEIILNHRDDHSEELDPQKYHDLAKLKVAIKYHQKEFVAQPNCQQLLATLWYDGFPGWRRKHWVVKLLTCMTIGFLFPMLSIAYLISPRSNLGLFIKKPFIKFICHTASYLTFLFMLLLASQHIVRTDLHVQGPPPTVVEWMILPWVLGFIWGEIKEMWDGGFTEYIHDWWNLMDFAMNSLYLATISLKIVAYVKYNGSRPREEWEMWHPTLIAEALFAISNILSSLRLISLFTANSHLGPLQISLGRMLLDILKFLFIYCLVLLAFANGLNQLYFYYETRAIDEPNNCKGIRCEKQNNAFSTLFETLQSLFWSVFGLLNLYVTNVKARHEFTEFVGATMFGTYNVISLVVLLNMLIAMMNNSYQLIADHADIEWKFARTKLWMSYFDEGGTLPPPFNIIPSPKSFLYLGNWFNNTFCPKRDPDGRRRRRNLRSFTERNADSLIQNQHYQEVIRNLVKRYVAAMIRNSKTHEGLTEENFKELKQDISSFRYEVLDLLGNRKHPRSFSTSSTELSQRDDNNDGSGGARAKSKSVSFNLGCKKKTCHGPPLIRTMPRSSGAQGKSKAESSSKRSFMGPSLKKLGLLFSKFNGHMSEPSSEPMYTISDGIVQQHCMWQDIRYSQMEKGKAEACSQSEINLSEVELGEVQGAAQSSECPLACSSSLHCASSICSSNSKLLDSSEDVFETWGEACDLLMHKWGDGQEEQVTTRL
Description: HEK-293 cells expressing hTRPC3, hTRPC4 or hTRPC5 were seeded into black-bottomed 96-well plates coated with poly-lysine (PDL), with 2×10^4 cells per well. After 8 h of culture, the original culture medium was discarded, and 60 µL of Fluo-4/AM dye with a final concentration of 4 µM was added. The plates were incubated at 37 °C for 60 min, and then rinsed five times with calcium flow detection buffer. […] Then, the agonist Englerin A (EA) (MedChemExpress, Shanghai, China, final concentration of 0.3nM) was added, and the fluorescence signal was collected for 600 seconds. The fluorescence signal of the trajectory diagram is represented by F/F0, wherein F is the fluorescence signal at different time points, and F0 is the basic fluorescence signal, that is, the average value of the fluorescence signal at the first 10 time points. […] The area under the curve of the change in fluorescence intensity after adding EA was calculated. IC50 value was calculated using log[Inhibitor] vs. response - Variable slope, taking into account the area under the curve and the log value of the concentration of the compound.

[4] = target: T2, hERG channel (Homo sapiens, UniProt Q12809); test: hERG channel inhibition assay (Qpatch whole-cell recording, CHO cells expressing hERG); assay type: cell-based; conditions: Table 3; highest test concentration 40 µM; read-out: inhibitory activity IC50 hERG
T2 construct: expressed in transfected cells; host or cells: CHO
T2 sequence (Q12809 whole entry): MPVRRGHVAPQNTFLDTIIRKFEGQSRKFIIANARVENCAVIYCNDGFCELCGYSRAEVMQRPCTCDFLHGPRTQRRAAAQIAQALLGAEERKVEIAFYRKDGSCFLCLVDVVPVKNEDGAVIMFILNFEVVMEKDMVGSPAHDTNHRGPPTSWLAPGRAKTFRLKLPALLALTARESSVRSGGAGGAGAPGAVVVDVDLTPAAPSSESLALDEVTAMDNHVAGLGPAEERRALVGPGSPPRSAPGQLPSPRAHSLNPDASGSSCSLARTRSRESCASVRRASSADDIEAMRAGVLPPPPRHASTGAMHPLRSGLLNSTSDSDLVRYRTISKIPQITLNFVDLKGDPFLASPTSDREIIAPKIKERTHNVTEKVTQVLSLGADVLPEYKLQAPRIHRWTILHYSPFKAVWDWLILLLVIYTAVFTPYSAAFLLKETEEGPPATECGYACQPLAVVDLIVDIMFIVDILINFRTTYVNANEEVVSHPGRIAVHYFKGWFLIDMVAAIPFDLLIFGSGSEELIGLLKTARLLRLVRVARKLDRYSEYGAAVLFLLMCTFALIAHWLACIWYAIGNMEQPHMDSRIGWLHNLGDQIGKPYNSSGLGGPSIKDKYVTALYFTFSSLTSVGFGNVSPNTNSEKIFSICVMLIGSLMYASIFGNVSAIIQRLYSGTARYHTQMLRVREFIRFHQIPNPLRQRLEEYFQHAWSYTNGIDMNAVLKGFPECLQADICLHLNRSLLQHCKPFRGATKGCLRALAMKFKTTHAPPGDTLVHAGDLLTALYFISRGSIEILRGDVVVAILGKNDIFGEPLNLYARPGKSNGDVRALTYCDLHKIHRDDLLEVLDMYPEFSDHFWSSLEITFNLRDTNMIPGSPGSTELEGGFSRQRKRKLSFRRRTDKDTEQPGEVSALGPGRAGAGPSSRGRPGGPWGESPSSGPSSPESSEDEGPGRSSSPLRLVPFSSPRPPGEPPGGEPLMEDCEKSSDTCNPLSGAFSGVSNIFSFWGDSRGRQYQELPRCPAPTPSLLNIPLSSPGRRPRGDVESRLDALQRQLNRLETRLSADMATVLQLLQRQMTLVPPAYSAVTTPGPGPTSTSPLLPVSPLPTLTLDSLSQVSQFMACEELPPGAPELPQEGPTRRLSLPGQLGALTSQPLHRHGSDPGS
Description: (§2) CHO cells expressing hERG protein were cultured in 175cm^2 culture flasks. When the cell density grew to 60-80%, the culture medium was removed, and the cells were washed with 7mL PBS, and then 3mL Detachin was added for digestion. After digestion was complete, 7mL culture medium was added for neutralization, and then centrifuged, the supernatant was aspirated, and 5mL culture medium was added for resuspending to ensure that the cell density was 2-5×10^6/mL.
(§3) The single-cell high-impedance sealing and whole-cell pattern formation process were all automatically completed by the Qpatch instrument. After obtaining the whole-cell recording mode, the cell was clamped at -80 mV. […] This voltage stimulus was applied every 15 seconds. After recording for 2 minutes, the extracellular solution was recorded for 2 minutes, and then the drug administration process began. The compound concentration started from the lowest test concentration, and each test concentration was given for 2 minutes. After all concentrations were given continuously, the positive control compound 10 µM Cisapride was given. At least 3 cells (n≥3) were tested for each concentration.
(§4) The stock solution of compound was diluted with extracellular solution, 5 µL of 20 mM compound stock solution was added to 2495 µL of extracellular solution, 500 times diluted to 40 µM, and then 3 times serial dilution was performed in the extracellular solution containing 0.2% DMSO to obtain the final concentration to be tested.
(§5) (5) Data analysis: The experimental data were analyzed by XLFit software.

[5] = target: T3, hERG channel (relative to TRPC5) (Homo sapiens, UniProt Q12809); test: as above; assay type: cell-based; conditions: human, CHO cells expressing hERG; ratio of IC50 values
T3 construct: expressed in transfected cells; host or cells: CHO
T3 sequence (Q12809 whole entry): as above
Description: as §2, §3, §4, §5

[6] = Preliminary pharmacokinetic evaluation, plasma drug concentration after oral administration to mice; assay type: in vivo, ICR mice; conditions: oral 10 mg/kg, Mean ± SD, N = 3
Description: The test compound was prepared according to the following solvent: an aqueous solution of DMSO/Tween 80/0.5% (m/v) CMC-Na at a ratio of 2:2:96 (v/v/v), with a drug concentration of 1 mg/mL. Then, the test compound was gavaged to mice at a dosage of 10 mL/kg, with a dose of 10 mg/kg. Each compound was administered to 3 mice. At 1h and 4h after administration, about 50 µL of blood was collected from the orbital venous plexus of the mouse and placed in a centrifuge tube containing EDTA-K2 anticoagulant.

[7] = target: T1, hTRPC5; test: TRPC5 agonist activity assay (FLIPR calcium fluorescence); assay type: cell-based; conditions: Table 2, agonist activity on TRPC5 channels
Description: HEK-293 cells expressing hTRPC5 were seeded into PDL-coated black-walled 96-well plates, with 2×10^4 cells per well. After 8 hours of culture, the original culture medium was discarded, and 60 µL of 4 µM Fluo-4/AM dye was added immediately. The cells were incubated at 37 °C for 60 minutes, and then rinsed with calcium flow detection buffer 5 times. The cell plates were placed in FLIPR®TETRA (Molecular Devices, Sunnyvale, CA, USA) preheated at 30 °C, excited at a wavelength of 488 nm, and the fluorescence signals were continuously recorded in the range of 515-535 nm with a sampling frequency of 1 s. After recording for 360 seconds, solvent control and test compounds were added, and the fluorescence signal was collected for another 600 seconds. The fluorescence signal of the trajectory diagram is represented by F/F0, wherein F is the fluorescence signal at different time points, and F0 is the basic fluorescence signal, that is, the average value of the fluorescence signal at the first 10 time points. The dose-effect diagram first took F/F0 =1 as the baseline. The area under the curve of the change in fluorescence intensity after adding test compound was calculated. IC50 value was calculated using log[agonist] vs. response - Variable slope, taking into account the area under the curve and the log value of the concentration of the compound.

[8] = Liver microsome stability test, mouse; assay type: in vitro ADME; conditions: Mouse liver microsomes
Description: Calculation of Intrinsic Clearance: Clint = (1000 × slope)/(P); [formula]

SMILES: CNCCC(Oc1ccc(C(F)(F)F)cc1)c1ccccc1 (stereo not shown) [Fluoxetine, reference compound]
number of marbles buried by mice ([1]; oral 10 mg/kg): significantly reduced | immobility time of mice ([2]; oral 10 mg/kg): significantly reduced

IC50 ([3]; Table 1, TRPC5 channels, HEK-293 cells expressing hTRPC5, read-out: FLIPR IC50): 6.87 nM | IC50 ([3]; Table 3, read-out: inhibitory activity IC50 TRPC5): 6.9 nM | concentration at 1 h ([6]; male, ICR, mouse, 1h): 1310 ± 45 ng/mL | concentration at 4 h ([6]; male, ICR, mouse, 4h): 1180 ± 163 ng/mL
SMILES: Cn1c(=O)n(CCCO)c(=O)c2c1nc(C1(F)CCC(F)(F)CC1)n2Cc1ccc(C(F)(F)F)cc1 [Example E60, 1-(3-hydroxypropyl)-3-methyl-8-(1,4,4-trifluorocyclohexyl)-7-(4-(trifluoromethyl)benzyl)-3,7-dihydro-1H-purine-2,6-dione]
IC50 [4]: 13300 nM | selectivity ratio at 2 min [5]: 1940

EC50 [7]: 36.1 nM
SMILES: CC(C)OC1CCC(c2nc3c(c(=O)n(CCCO)c(=O)n3C)n2Cc2ccc(Cl)cc2)CC1 (stereo not shown) [Example E7, 7-(4-chlorobenzyl)-1-(3-hydroxypropyl)-8-(4-isopropoxycyclohexyl)-3-methyl-3,7-dihydro-1H-purine-2,6-dione]

SMILES: Cn1c(=O)n(CCCO)c(=O)c2c1nc(Oc1cccc(Cl)c1)n2Cc1ccc(Cl)cc1 [HC-070, reference compound]
Stability Evaluation [8]: Worse (MF%<30%, worse metabolic stability) | MF % ([8]; metabolic bioavailability): 19.8% | half-life ([8]; pH 7.4, 1µM compound, read-out: Half-life T1/2): 11.7 min | drug concentration 1h ([6]; 1h): 802 ± 164 ng/mL | drug concentration 4h ([6]; 4h): 398 ± 57 ng/mL | number of marbles buried by mice ([1]; oral 1 mg/kg): significantly reduced | immobility time of mice ([2]; oral 1 mg/kg): significantly reduced

— patent EP4663640A1 (Shanghai Institute of Materia Medica, Chinese Academy of …, priority 2023, dated 2024)
